# Values joined by “and” are separate entries in the source; they are usually repeats but may differ in a detail not shown here. Equal entries are not always repeated. Where two headings read alike, the source gives them in different places.
# Key:
# Format in all cases: cell-based
# [1] = system: influenza virus (influenza A/kitakyusyu/159/93 (H3N2))
# [2] = system: influenza virus (influenza A/kitakyusyu/159/93 (H3N2)); assay: Virus inactivation, plaque assay on MDCK cells; conditions: enveloped influenza virus, time period as short as 1 minute
# [3] = system: feline calicivirus (F9 strain); assay: Virus inactivation, plaque assay on CrFK cells; conditions: non-enveloped feline calicivirus, time period as short as 1 minute
# [4] = conc. of substance 0.5 mass %, 10 minutes at room temperature, control (PBS) 128
# [5] = conc. of substance 5 mass %, 10 minutes at room temperature, control (PBS) 128
Compound,"HA titer [1, 4]","HA titer [1, 5]",virus inactivation activity (in words) [2],virus inactivation activity (in words) [3],HA titer [1]
"[Fe+2].[I-].[I-] [Example 16, Iron (II) iodide]",<2,<2,,,
"[I][Sn][I] [Example 7, Tin (II) iodide]",2,<2,,,
"N#C[S-].[Cu+] [Example 25, Copper (I) thiocyanate]",64,16,,,
"[Cl][Cu] [Example 22, Copper (I) chloride]",<2,<2,sufficiently high virus inactivation activity,sufficiently high virus inactivation activity,
"[Co+2].[I-].[I-] [Example 17, Cobalt (II) iodide]",8,<2,,,
"[I-].[Tl+] [Example 9, Thallium (I) iodide]",64,32,,,
"[I][In]([I])[I] [Example 21, Indium (III) iodide]",<2,<2,,,
"[I][Au] [Example 14, Gold (I) iodide]",64,4,,,
"[I][Sb]([I])[I] [Example 3, Antimony (III) iodide]",32,16,,,
"[I][Ni][I] [Example 18, Nickel (II) iodide]",,,,,<2 and 4
"[Cu][Br] [Example 23, Copper (I) bromide]",32,<2,,,
"[I][Ir]([I])([I])[I] [Example 4, Iridium (IV) iodide]",64,32,,,
"[Cu+].[I-] [Example 1, Copper (I) iodide]",32,8,sufficiently high virus inactivation activity,sufficiently high virus inactivation activity,
"[I][Sn]([I])([I])[I] [Example 8, Tin (IV) iodide]",2,<2,,,
"[I-].[I-].[Zn+2] [Example 19, Zinc (II) iodide]",4,<2,,,
"CC(=O)[O-].[Cu+] [Example 24, Copper (I) acetate]",,,,,<2
"[Cu].[O]=[Cu] [Example 27, Copper (I) oxide]",64,8,,,
Silver (I) iodide [Example 20],64,32,,,
"[I][Ge][I] [Example 6, Germanium (II) iodide]",2,<2,,,
"[I][Ge]([I])([I])[I] [Example 5, Germanium (IV) iodide]",<2,<2,,,
"[I-].[I-].[I-].[I-].[Pt+4] [Example 11, Platinum (IV) iodide]",64,32,,,
"[I][Pd][I] [Example 12, Palladium (II) iodide]",64,2,,,
"[I][Bi]([I])[I] [Example 13, Bismuth (III) iodide]",64,8,,,

# Source: patent US9549949B2, “Antiviral agent” (NBC MESHTEC, INC., priority 2008, dated 2017)
